# Data published in ChEMBL document CHEMBL4477252, “Optimization of microtubule affinity regulating kinase (MARK) inhibitors with improved physical properties” (Bioorg Med Chem Lett, 2016).
# Target: MAP/microtubule affinity-regulating kinase 3 (Homo sapiens, UniProt P27448)
# Assay: Inhibition of full-length recombinant human GST-tagged MARK3 expressed in baculovirus expression system using biotinylated-Cdc25C peptide substrate measured after 2 hrs by HTRF assay
# Details: not given
# Sequence of MAP/microtubule affinity-regulating kinase 3 (P27448 whole entry): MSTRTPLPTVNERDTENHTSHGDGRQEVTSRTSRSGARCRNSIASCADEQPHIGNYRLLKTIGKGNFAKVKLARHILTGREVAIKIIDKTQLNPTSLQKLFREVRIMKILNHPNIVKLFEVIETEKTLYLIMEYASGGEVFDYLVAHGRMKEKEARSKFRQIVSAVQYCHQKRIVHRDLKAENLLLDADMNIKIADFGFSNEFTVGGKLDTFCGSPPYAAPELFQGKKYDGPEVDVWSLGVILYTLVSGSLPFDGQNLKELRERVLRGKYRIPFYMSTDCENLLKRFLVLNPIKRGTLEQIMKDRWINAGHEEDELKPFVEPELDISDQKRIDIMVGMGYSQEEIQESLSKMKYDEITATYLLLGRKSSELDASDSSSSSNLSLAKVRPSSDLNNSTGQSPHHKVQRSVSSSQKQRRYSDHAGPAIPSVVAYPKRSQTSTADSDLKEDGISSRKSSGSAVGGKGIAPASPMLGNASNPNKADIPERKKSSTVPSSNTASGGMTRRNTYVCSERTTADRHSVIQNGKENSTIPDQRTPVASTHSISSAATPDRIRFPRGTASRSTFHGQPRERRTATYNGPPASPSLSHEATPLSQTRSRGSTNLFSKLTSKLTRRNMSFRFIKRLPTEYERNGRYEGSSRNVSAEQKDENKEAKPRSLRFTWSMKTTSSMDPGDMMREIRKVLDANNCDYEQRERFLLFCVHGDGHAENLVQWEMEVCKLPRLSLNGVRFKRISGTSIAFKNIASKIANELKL
row,Structure (SMILES),IC50
1,O=C(NCC(F)(F)F)c1cc(-c2cnn3cc(-c4cn[nH]c4)cnc23)cs1,99 nM
2,Cn1cnc(-c2cnc3c(-c4csc(C(=O)NCC(F)(F)F)c4)cnn3c2)c1,13 nM
3,O=C(NCC(F)(F)F)c1cc(-c2cnn3cc(-c4cccnc4)cnc23)cs1,70 nM
4,CCNC(=O)c1cc(-c2cnn3cc(-c4cnn(C)c4)cnc23)cs1,129 nM
5,Cc1sc(C(=O)N[C@H]2CCCC(F)(F)[C@H]2N)cc1-c1cnn2cc(-c3cnn(C)c3)cnc12,130 nM
6,Cn1cc(-c2cnc3c(-c4csc(C(=O)NCCC(N)C(F)F)c4)cnn3c2)cn1 (stereo not drawn),15 nM
7,Cn1cc(-c2cnc3c(-c4csc(C(=O)NCCC(N)CF)c4)cnn3c2)cn1 (stereo not drawn),22 nM
8,Cn1cc(-c2cnc3c(-c4csc(C(=O)N[C@@H]5CCCC[C@H]5O)c4)cnn3c2)cn1 (mixture of isomers),24 nM
9,Cn1cc(-c2cnc3c(-c4csc(C(=O)N[C@@H]5CCC[C@H]5O)c4)cnn3c2)cn1 (racemic),10 nM
10,Cn1cc(-c2cnc3c(-c4csc(C(=O)N[C@@H]5CCC[C@@H]5O)c4)cnn3c2)cn1 (racemic),43 nM

# More lines, now with the values ahead:
row,IC50,Structure (SMILES)
1,2.4 nM,Cc1sc(C(=O)N[C@@H]2[C@H](N)CCCC2(F)F)cc1-c1cnn2cccnc12
2,< 0.25 nM,Cc1sc(C(=O)N[C@@H]2[C@H](N)CCCC2(F)F)cc1-c1cnn2cc(-c3cnn(C)c3)cnc12
3,10 nM,Cn1cc(-c2cnc3c(-c4csc(C(=O)NCCC(N)C(F)(F)F)c4)cnn3c2)cn1 (stereo not drawn)
4,9 nM,Cn1cc(-c2cnc3c(-c4csc(C(=O)NC(CO)C5CC5)c4)cnn3c2)cn1 (stereo not drawn)
5,5 nM,COCCOc1ccc(-c2cnc3c(-c4csc(C(=O)NCC(F)(F)F)c4)cnn3c2)cc1
6,2 nM,Cn1cc(-c2cnc3c(-c4csc(C(=O)N[C@@H]5CCC[C@@H]5N)c4)cnn3c2)cn1 (racemic)
7,1 nM,Cn1cc(-c2cnc3c(-c4csc(C(=O)N[C@@H]5CCCC[C@H]5N)c4)cnn3c2)cn1 (racemic)
8,1.3 nM,Cc1sc(C(=O)N[C@@H]2CCCC[C@@H]2N)cc1-c1cnn2cc(-c3cnn(C)c3)cnc12 (racemic)
9,3 nM,Cn1cc(-c2cnc3c(-c4csc(C(=O)N[C@@H]5CCC[C@H]5N)c4)cnn3c2)cn1 (racemic)
10,9 nM,Cn1cc(-c2cnc3c(-c4csc(C(=O)N[C@@H]5CCCC[C@@H]5O)c4)cnn3c2)cn1 (racemic)

# Tested on: not listed separately
# Assay: Clearance in Sprague-Dawley rat at 1 mL/kg, iv administered through catheter measured after 24 hrs by LC-MS/MS analysis
# Type: ADME, organism-based
# Details: in vivo
row,clearance,Structure (SMILES)
1,14 mL/min/kg,Cn1cc(-c2cnc3c(-c4csc(C(=O)NCCC(N)C(F)(F)F)c4)cnn3c2)cn1 (stereo not drawn)
2,16.7 mL/min/kg,Cn1cc(-c2cnc3c(-c4csc(C(=O)NCCC(N)C(F)F)c4)cnn3c2)cn1 (stereo not drawn)

# Target: MDR1 (ABCB1, P-glycoprotein) (Homo sapiens, UniProt P08183)
# Sequence (P08183 whole entry): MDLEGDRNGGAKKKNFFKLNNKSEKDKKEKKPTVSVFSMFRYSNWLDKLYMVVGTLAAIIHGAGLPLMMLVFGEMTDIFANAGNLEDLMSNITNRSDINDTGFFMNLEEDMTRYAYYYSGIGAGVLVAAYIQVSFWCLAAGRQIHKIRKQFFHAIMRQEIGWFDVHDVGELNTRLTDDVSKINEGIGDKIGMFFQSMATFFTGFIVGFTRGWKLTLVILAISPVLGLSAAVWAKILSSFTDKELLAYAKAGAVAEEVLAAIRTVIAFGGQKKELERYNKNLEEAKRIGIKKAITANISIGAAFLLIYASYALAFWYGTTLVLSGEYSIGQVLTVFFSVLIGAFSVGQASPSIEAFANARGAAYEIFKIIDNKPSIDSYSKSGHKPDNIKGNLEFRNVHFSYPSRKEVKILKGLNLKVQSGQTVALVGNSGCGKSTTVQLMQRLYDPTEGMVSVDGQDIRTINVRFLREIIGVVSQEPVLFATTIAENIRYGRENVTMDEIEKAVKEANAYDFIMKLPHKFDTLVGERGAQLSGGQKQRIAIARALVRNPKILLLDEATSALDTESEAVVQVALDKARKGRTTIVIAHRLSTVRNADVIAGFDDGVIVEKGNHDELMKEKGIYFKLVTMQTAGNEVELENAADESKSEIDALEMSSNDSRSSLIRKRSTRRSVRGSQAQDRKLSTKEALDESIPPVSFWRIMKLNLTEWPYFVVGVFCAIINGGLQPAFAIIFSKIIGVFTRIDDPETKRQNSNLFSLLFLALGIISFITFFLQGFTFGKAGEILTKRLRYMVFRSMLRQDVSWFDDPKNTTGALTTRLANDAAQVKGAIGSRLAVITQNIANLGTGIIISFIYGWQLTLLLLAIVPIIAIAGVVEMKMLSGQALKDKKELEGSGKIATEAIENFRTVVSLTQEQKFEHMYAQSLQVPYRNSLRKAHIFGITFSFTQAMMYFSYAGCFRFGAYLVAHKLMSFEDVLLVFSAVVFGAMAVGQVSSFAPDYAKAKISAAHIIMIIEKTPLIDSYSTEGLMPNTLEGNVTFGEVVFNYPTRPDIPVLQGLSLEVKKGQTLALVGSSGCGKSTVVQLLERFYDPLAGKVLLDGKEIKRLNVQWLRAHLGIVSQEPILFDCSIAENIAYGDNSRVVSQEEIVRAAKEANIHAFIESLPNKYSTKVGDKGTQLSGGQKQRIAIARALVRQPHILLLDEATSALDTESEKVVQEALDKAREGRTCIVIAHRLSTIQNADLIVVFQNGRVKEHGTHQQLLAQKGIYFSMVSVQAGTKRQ
# Assay: Substrate activity at human MDR1 expressed in LLC-PK1 cells assessed as efflux ratio of permeability across basolateral to apical over apical to basolateral side at 5 uM
# Type: ADME, cell-based
# Details: not given
row,Structure (SMILES),efflux ratio at 5 µM
1,Cn1cc(-c2cnc3c(-c4csc(C(=O)NCCC(N)C(F)F)c4)cnn3c2)cn1 (stereo not drawn),11.5
2,Cn1cc(-c2cnc3c(-c4csc(C(=O)NCCC(N)CF)c4)cnn3c2)cn1 (stereo not drawn),16.7

# Next, values leading:
row,efflux ratio at 5 µM,Structure (SMILES)
1,10,Cc1sc(C(=O)N[C@@H]2[C@H](N)CCCC2(F)F)cc1-c1cnn2cccnc12
2,4.8,Cn1cc(-c2cnc3c(-c4csc(C(=O)NCCC(N)C(F)(F)F)c4)cnn3c2)cn1 (stereo not drawn)

# Tested on: not listed separately
# Assay: Solubility of the compound at pH 7
# Type: physicochemical
# Details: buffer
row,solubility,Structure (SMILES)
1,200 µM,Cc1sc(C(=O)N[C@@H]2[C@H](N)CCCC2(F)F)cc1-c1cnn2cccnc12
2,31 µM,Cc1sc(C(=O)N[C@@H]2[C@H](N)CCCC2(F)F)cc1-c1cnn2cc(-c3cnn(C)c3)cnc12
3,6 µM,Cn1cc(-c2cnc3c(-c4csc(C(=O)N[C@@H]5CCCC[C@H]5O)c4)cnn3c2)cn1 (mixture of isomers)
4,69 µM,Cn1cc(-c2cnc3c(-c4csc(C(=O)N[C@@H]5CCC[C@@H]5N)c4)cnn3c2)cn1 (racemic)
5,193 µM,Cn1cc(-c2cnc3c(-c4csc(C(=O)N[C@@H]5CCCC[C@H]5N)c4)cnn3c2)cn1 (racemic)
6,192 µM,Cc1sc(C(=O)N[C@@H]2CCCC[C@@H]2N)cc1-c1cnn2cc(-c3cnn(C)c3)cnc12 (racemic)
7,203 µM,Cn1cc(-c2cnc3c(-c4csc(C(=O)N[C@@H]5CCC[C@H]5N)c4)cnn3c2)cn1 (racemic)
